PubChem BioAssay (NCI)
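How tested: cells in 96-well plates exposed to compound for 48 hours at five concentrations. GI50: concentration for 50% inhibition of growth. At the TGI there is no net growth.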

How the values were obtained:
Test in all cases: growth of human tumour cells (NCI), 48 h
A498 renal = test system: A498 renal
NCI-H23 lung = test system: NCI-H23 lung
SR leukemia = test system: SR leukemia
HCT-15 colon = test system: HCT-15 colon
KM12 colon = test system: KM12 colon
SNB-75 CNS = test system: SNB-75 CNS
OVCAR-3 ovarian = test system: OVCAR-3 ovarian
COLO 205 colon = test system: COLO 205 colon
CCRF-CEM leukemia = test system: CCRF-CEM leukemia
PC-3 prostate = test system: PC-3 prostate

SMILES | GI50 (A498 renal) [µM] | TGI (A498 renal) [µM] | GI50 (NCI-H23 lung) [µM] | TGI (NCI-H23 lung) [µM] | GI50 (SR leukemia) [µM] | TGI (SR leukemia) [µM] | GI50 (HCT-15 colon) [µM] | TGI (HCT-15 colon) [µM] | GI50 (KM12 colon) [µM] | TGI (KM12 colon) [µM] | GI50 (SNB-75 CNS) [µM] | TGI (SNB-75 CNS) [µM] | GI50 (OVCAR-3 ovarian) [µM] | TGI (OVCAR-3 ovarian) [µM] | GI50 (COLO 205 colon) [µM] | TGI (COLO 205 colon) [µM] | TGI (CCRF-CEM leukemia) [µM] | GI50 (CCRF-CEM leukemia) [µM] | GI50 (PC-3 prostate) [µM] | TGI (PC-3 prostate) [µM]
Cc1cn(Cc2ccc(C34CC5CC(CC(C5)C3)C4)c(O)c2)c(=O)[nH]c1=O | 4.33 | 17.8 | 8.11 | 20.7 | 3.16 | 13.5 | 7.99 | 20.5 | 11.4 | 26.2 | 11.2 | 29.6 | 4.04 | 16.3 | 16.4 | 32.2 |  |  |  | 
COc1c(-c2ccccc2)nc2ccc(Oc3ccccc3)nn12 |  | > 66.5 |  | > 96.5 |  | > 100 |  | > 100 |  | > 100 |  | > 100 |  | > 100 |  | > 65 | 99.3 |  |  | 
Cc1nc2c(o1)C(=Nc1ccccc1)c1nc(C)oc1C2=Nc1ccccc1 |  | 3.01 |  | 63.7 |  | > 100 |  | > 100 |  |  |  | 28.6 |  | > 100 |  | > 100 | > 100 |  |  | 
N#CC(C(=O)/C(=N\NC(N)=O)C(C#N)c1ccccc1)c1ccccc1 (stereo not given) |  | > 100 |  | > 100 |  | > 100 |  | > 100 |  | > 100 |  | > 100 |  | > 100 |  | > 100 | > 100 |  |  | 
N/N=C(/Cc1nc2ccc(C(=O)c3ccccc3)cc2[nH]c1=O)C(=O)Nc1ccc([N+](=O)[O-])cc1[N+](=O)[O-] | > 100 | > 100 | > 100 | > 100 | > 100 | > 100 | > 100 | > 100 |  | > 100 |  |  |  |  | > 100 | > 100 | > 100 | > 100 |  | 
COC(=O)C1C(=O)O[C@@H](c2cc(OC)c(OC)cc2OC)C1C(=O)OC (mixture of isomers) |  | > 100 |  | > 100 |  | > 100 |  | > 100 |  | > 100 |  | > 100 |  | > 100 |  | > 100 | > 100 |  |  | 
COC(=O)C1=CC2C=CC(C1C(=O)OC)C1C(C(=O)OC)=C(C(=O)OC)C(C(=O)OC)=C(C(=O)OC)C21OC (stereo not given) |  | > 100 |  | > 100 |  | > 100 |  | > 100 |  |  |  | > 100 |  | > 100 |  | > 100 |  |  |  | 
CC(=O)[CH-]C(=O)c1ccccc1.CC(=O)[CH-]C(=O)c1ccccc1.CC(=O)[CH-]C(=O)c1ccccc1.[Nd+3].[OH3+] | > 100 | > 100 | 37.8 | > 100 |  |  | 42 | > 100 | 13.4 | > 100 | 6.66 | 43.4 | 45.7 | > 100 | 47.3 | > 100 | > 100 | 9.7 |  | 
CN(/N=C/c1ccnc2ccccc12)c1c([N+](=O)[O-])cc([N+](=O)[O-])cc1[N+](=O)[O-] |  | > 100 |  | > 100 |  |  |  | > 100 |  | > 100 |  | > 100 |  | > 100 |  | > 100 | > 100 |  |  | 
COc1cc(/C=N/N=C(\N)NO)c(Cl)cc1O |  | > 100 |  | > 100 |  |  |  | > 100 |  | > 100 |  |  |  |  |  | > 100 | > 100 |  |  | 
CCNC(=O)Oc1ccc(/C(=C(/C)Cc2ccc(OC)cc2)c2ccc(OCCN(CC)CC)cc2)cc1 | 2.58 | 11.1 | 2.09 | 5.35 | 1.76 | 5.96 | 1.51 | 3.06 | 2.01 | 4.58 | 1.69 | 4.93 | 1.69 | 3.34 | 1.94 | 3.82 | 7.96 | 2.66 |  | 
Cc1cc(C)c(-c2noc(-c3ccc(Cl)cc3)c2C2=NCCCN2)c(C)c1 |  |  |  | 40.1 |  | > 100 |  | > 100 |  | > 100 |  |  |  | > 100 |  | 35.1 | 73.9 |  |  | 
Cc1cc(C)c(-c2c(N)cc(Br)cc2Br)c(N)c1 | 2.35 | 14.4 | 4.89 | 18 |  |  | 4.7 | 17.3 | 3.89 | 14.5 | 2.48 | 10.1 | 3.09 | 8.74 | 4.93 | 15.6 |  |  | 6.42 | 26.5
Clc1cccc(-c2nnc(-c3nn(-c4ccccc4)c4nc5ccccc5nc34)o2)c1 |  |  |  | > 100 |  |  |  | > 100 |  | > 100 |  | > 100 |  | > 100 |  | > 100 | > 100 |  |  | 
NC1=NN(c2ccccc2)C(=O)C1C(=O)C(=O)Nc1ccc(Cl)c(Cl)c1 (stereo not given) |  | > 100 |  | > 100 |  | > 100 |  | > 100 |  | > 100 |  | 85 |  | > 100 |  | > 100 | > 100 |  |  | 
CNS(=O)(=O)NNS(=O)(=O)c1ccc(OC)cc1 |  | > 100 |  | > 100 |  | > 100 |  | > 100 |  | > 100 |  | > 100 |  | > 100 |  | > 100 | > 100 |  |  | 
O=C(/C=C\c1cccc2ccccc12)c1ccc(Cl)cc1Cl |  | > 100 |  | > 100 |  |  |  | 26.6 |  | 31 |  | > 100 |  | 43.5 |  | 45.5 | 42.1 |  |  | 
COc1ccc(OC)c(/C=N/N=C(\N)NO)c1 |  |  |  | > 100 |  | > 100 |  | > 100 |  | > 100 |  | > 100 |  | > 100 |  | 66.2 | > 100 |  |  | 
O=C1c2ccccc2C2CCC1c1ccccc12 (stereo not given) |  | > 100 |  | 65 |  | 58.2 |  | > 100 |  | > 100 |  | > 100 |  | > 100 |  | 46.8 | > 100 |  |  | 
COC(=O)[C@@]12CC(C(C)C)[C@H]3CC(C(=O)C=C1OC)[C@H]32 (stereo not given in full) |  | > 100 |  | > 100 |  |  |  | > 100 |  | > 100 |  | > 100 |  | > 100 |  | > 100 | > 100 |  |  | 
